The experiment concerns the target T1, KRAS G12C 1-169, his-tagged protein, GDP-loaded (Homo sapiens, UniProt P01116, G12C).
T1 construct: KRAS G12C 1-169, his-tagged protein, GDP-loaded
Kind of experiment: Biochemical assay: covalent binding to KRAS G12C analyzed by mass spectrometry. Note: test concentration or dose not given here.

The mark [1] stands for this setting: compounds 48-246, measured at 2 h.
Where [2] appears, read: compounds 247-342, measured at 30 min.
Where [3] appears, read: compounds 1-47, measured at 24 h.

T1 sequence (P01116 1-169 isoform P01116-2 G12C): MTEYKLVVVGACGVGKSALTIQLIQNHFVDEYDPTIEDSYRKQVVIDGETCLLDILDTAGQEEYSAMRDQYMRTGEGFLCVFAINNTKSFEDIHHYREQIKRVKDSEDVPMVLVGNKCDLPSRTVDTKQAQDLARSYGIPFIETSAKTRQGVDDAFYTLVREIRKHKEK

For the molecule `C=CC(=O)N1CCN(c2ncnc3cc(-c4cccc(C(=O)N(C)C)c4F)c(Cl)cc23)CC1` [Compound I-131, 3-(4-(4-acryloylpiperazin-1-yl)-6-chloroquinazolin-7-yl)-2-fluoro-N,N-dimethylbenzamide], under setting [1], the Binding % result is on record as “+ (+indicates binding activity from 5% to 25%)”.
As to `C=CC(=O)N1CCN(c2nc(NC3CCOC3)nc3cc(-c4c(C)ccc5[nH]ncc45)c(Cl)cc23)CC1` (stereo not drawn) [Compound 330, 1-(4-(6-chloro-7-(5-methyl-1H-indazol-4-yl)-2-(tetrahydrofuran-3-ylamino)quinazolin-4-yl)piperazin-1-yl)prop-2-en-1-one], the Binding % result under setting [2] was “++ (++indicates binding activity greater than 25% and up to 50%)”.
Take `C=CC(=O)N1CC(N2CCN(C(=O)CNc3cc(C4CC4)c(Cl)cc3O)CC2CO)C1` (stereo not drawn) [II-54, 1-(3-(4-(2-(4-Chloro-5-cyclopropyl-2-hydroxyphenylamino)acetyl)-2-(hydroxymethyl)piperazin-1-yl)azetidin-1-yl)prop-2-en-1-one]: the Binding % entry (determined at 2 hrs) is recorded as “++ (++indicates binding activity greater than 20%)”.
Turning to `C=CC(=O)N1CCN(c2ncnc3c(F)c(-c4c(C)c(C)cc5cn[nH]c45)c(Cl)cc23)CC1` [Compound I-255, 1-(4-(6-chloro-7-(5,6-dimethyl-1H-indazol-7-yl)-8-fluoroquinaolin-4-yl)piperazin-1-yl)prop-2-en-1-one], the Binding % entry under setting [2] is “+++ (+++indicates binding activity greater than 50% and up to 75%)”.
For `C=CC(=O)N1CC(N2CCN(C(=O)[C@@H](C)Nc3cc(CC)c(Cl)cc3O)CC2)C1` [II-70, (R)-1-(3-(4-(2-(4-chloro-5-ethyl-2-hydroxyphenylamino)-propanoyl)piperazin-1-yl)azetidin-1-yl)prop-2-en-1-one], for the setting “determined at 2 hrs”, the Binding % result is on record as “++ (++indicates binding activity greater than 20%)”.
For `C=CC(=O)N1CCN(c2ncnc3cc(-c4cc(O)ccc4Cl)c(C(F)(F)F)cc23)CC1` [Compound I-207, 1-(4-(7-(2-chloro-5-hydroxyphenyl)-6-(trifluoromethyl)quinazolin-4-yl)piperazin-1-yl)prop-2-en-1-one], under setting [1], the Binding % result is on record as “++++ (++++indicates binding activity greater than 75%)”.
As to `C=CC(=O)N1CCN(c2ncnc3cc(Cl)c(-c4ccc(Cl)cc4)cc23)C[C@H]1C#N` [Compound I-59, (S)-1-acryloyl-4-(7-chloro-6-(4-chlorophenyl)quinazolin-4-yl)piperazine-2-carbonitrile], under setting [1], the Binding % entry is “++++ (++++indicates binding activity greater than 75%)”.
For the molecule `C=CC(=O)N1CC(N2CCN(C(=O)[C@H](C)Nc3cc(CC)c(Cl)cc3O)CC2)C1` [II-69, (S)-1-(3-(4-(2-((4-Chloro-5-ethyl-2-hydroxyphenyl)amino)propanoyl)piperazin-1-yl)azetidin-1-yl)prop-2-en-1-one], the Binding % entry (determined at 2 hrs) is reported as “++ (++indicates binding activity greater than 20%)”.
Take `C=CC(=O)N1CCN(c2nccc3cc(Cl)c(-c4ccccc4Cl)cc23)CC1` [Compound I-24, 1-(4-(6-chloro-7-(2-chlorophenyl)isoquinolin-1-yl)piperazin-1-yl)prop-2-en-1-one]: the Binding % result under setting [3] is on record as “+ (+indicates binding activity from 5% to 25%)”.
For the molecule `C=CC(=O)N1CCN(c2ncc3cccc(-c4ccccc4Cl)c3n2)CC1` [Compound I-35, 1-(4-(8-(2-chlorophenyl)quinazolin-2-yl)piperazin-1-yl)prop-2-en-1-one], the Binding % entry under setting [3] is recorded as “+ (+indicates binding activity from 5% to 25%)”.
As for `C=CC(=O)N1CC(N2CCN(C(=O)CNc3cc(C4CC4)c(Cl)cc3O)CC2C(N)=O)C1` (stereo not drawn) [II-51, 1-(1-acryloylazetidin-3-yl)-4-(2-(4-chloro-5-cyclopropyl-2-hydroxyphenylamino)acetyl)piperazine-2-carboxamide], for the setting “determined at 2 hrs”, the Binding % result is reported as “++ (++indicates binding activity greater than 20%)”.
Regarding `C=CC(=O)N1CCN(c2ncnc3c(F)c(-c4ccccc4C(F)(F)F)c(Cl)cc23)CC1` [Compound I-209, 1-(4-(6-chloro-8-fluoro-7-(2-(trifluoromethyl)phenyl)quinazolin-4-yl)piperazin-1-yl)prop-2-en-1-one], the Binding % result under setting [1] is “++++ (++++indicates binding activity greater than 75%)”.
On to `CN(C)C/C=C/C(=O)N1CCN(c2ncnc3cc(Cl)c(-c4ccc(Cl)cc4)cc23)CC1C#N` (stereo not drawn) [Compound I-66, (E)-4-(7-Chloro-6-(4-chlorophenyl)quinazolin-4-yl)-1-(4-(dimethylamino)but-2-enoyl)piperazine-2-carbonitrile], for which, under setting [1], the Binding % result is “++++ (++++indicates binding activity greater than 75%)”.
As to `Cc1ccc2[nH]ncc2c1-c1c(Cl)cc2c(N3CCN(C(=O)/C=C/CN)CC3)ncnc2c1F` [Compound 311, (E)-4-amino-1-(4-(6-chloro-8-fluoro-7-(5-methyl-1H-indazol-4-yl)quinazolin-4-yl)piperazin-1-yl)but-2-en-1-one], the Binding % result under setting [2] is “+++ (+++indicates binding activity greater than 50% and up to 75%)”.
Turning to `C=CC(=O)N1CCN(c2ncnc3c(F)c(-c4c(O)cccc4F)c(F)cc23)CC1` [Compound 299, 1-(4-(6,8-difluoro-7-(2-fluoro-6-hydroxyphenyl)quinazolin-4-yl)piperazin-1-yl)prop-2-en-1-one], the Binding % entry under setting [2] was “+ (+indicates binding activity from 5% to 25%)”.
For `C=CC(=O)NC1CN(C2CN(C(=O)CNc3cc(C4CC4)c(Cl)cc3O)C2)C1` [II-45, N-(1′-(2-(4-chloro-5-cyclopropyl-2-hydroxyphenyl-amino)acetyl)-1,3′-biazetidin-3-yl)acrylamide], the Binding % entry (determined at 24 hrs) is “++++ (++++indicates binding activity greater than 50%)”.
`C=CC(=O)N1CCN(C(=O)c2cc(-c3ccc(Cl)cc3)c(Cl)cc2O)CC1C#N` (stereo not drawn) [III-37, 1-acryloyl-4-(4′,6-dichloro-4-hydroxybiphenylcarbonyl)piperazine-2-carbonitrile]: the Binding % result (determined at 2 hrs) is reported as “++ (++indicates binding activity greater than 20%)”.
For `C=CC(=O)N1CCN(c2ncnc3cc(-c4cccc(F)c4)c(Cl)cc23)CC1` [Compound I-84, 1-(4-(6-chloro-7-(3-fluorophenyl)quinazolin-4-yl)piperazin-1-yl)prop-2-en-1-one], the Binding % result under setting [1] is “++ (++indicates binding activity greater than 25% and up to 50%)”.
On to `C#CC1CN(c2ncnc3c(F)c(-c4ccccc4F)c(Cl)cc23)CCN1C(=O)C=C` (stereo not drawn) [Compound I-252, 1-(4-(6-chloro-8-fluoro-7-(2-fluorophenyl)quinazolin-4-yl)-2-ethynylpiperazin-1-yl)prop-2-en-1-one], for which the Binding % result under setting [2] was “++++ (++++indicates binding activity greater than 75%)”.
Turning to `C=CC(=O)N1CC(N2CCN(C(=O)c3cc(-c4cc(Cl)ccc4Cl)c(Cl)cc3OC)CC2)C1` [II-13, 1-(3-(4-(2′,5′,6-trichloro-4-methoxybiphenyl-carbonyl)piperazin-1-yl)azetidin-1-yl)prop-2-en-1-one], the Binding % entry (determined at 24 hrs) is “++ (++indicates binding activity greater than 15% and up to 25%)”.
Regarding `C=CC(=O)N1CCN(c2ncnc3cc(-c4ccccn4)c(Cl)cc23)CC1` [Compound I-92, 1-(4-(6-chloro-7-(pyridin-2-yl)quinazolin-4-yl)piperazin-1-yl)prop-2-en-1-one], the Binding % result under setting [1] is on record as “+ (+indicates binding activity from 5% to 25%)”.
On the same count and under the same terms, the value for `C=CC(=O)N1CCN(c2c(C#N)cnc3cc(-c4cccc5ccccc45)c(Cl)cc23)CC1` [Compound I-171, 4-(4-acryloylpiperazin-1-yl)-6-chloro-7-(naphthalen-1-yl)quinolin-3-carbonitrile] was “+++ (+++indicates binding activity greater than 50% and up to 75%)”.
Turning to `C=CC(=O)N1CCN(c2nc(N(C)C)nc3c(F)c(-c4c(C)ccc5[nH]ncc45)c(Cl)cc23)CC1` [Compound 338, 1-(4-(6-chloro-2-(dimethylamino)-8-fluoro-7-(5-methyl-1H-indazol-4-yl)quinazolin-4-yl)piperazin-1-yl)prop-2-en-1-one], under setting [2], the Binding % entry was “++ (++indicates binding activity greater than 25% and up to 50%)”.
For the molecule `C=CC(=O)N1CCN(c2ncnc3cc(C4CC4)c(-c4ccc(C5CC5)cc4)cc23)CC1` [Compound I-41, 1-(4-(7-cyclopropyl-6-(4-cyclopropylphenyl)quinazolin-4-yl)piperazin-1-yl)prop-2-en-1-one], the Binding % result under setting [3] is on record as “+ (+indicates binding activity from 5% to 25%)”.
As for `C=CC(=O)N1CCN(c2ncnc3cc(-c4cc(O)cc5ccccc45)c(Cl)cc23)CC1` [Compound I-251, 1-(4-(6-chloro-7-(3-hydroxynaphthalen-1-yl)quinazolin-4-yl)piperazin-1-yl)prop-2-en-1-one], the Binding % result under setting [2] is given as “++++ (++++indicates binding activity greater than 75%)”.
On to `C=CC(=O)N1CCN(c2ncnc3cc(-c4ccc5cn[nH]c5c4)c(Cl)cc23)CC1` [Compound I-162, 1-(4-(6-chloro-7-(1H-indazol-6-yl)quinazolin-4-yl)piperazin-1-yl)prop-2-en-1-one], for which, under setting [1], the Binding % result is listed as “+ (+indicates binding activity from 5% to 25%)”.
With `C=CC(=O)N1CCN(c2ncnc3cc(-c4ccccc4F)c(Cl)cc23)CC1C(N)=O` (stereo not drawn) [Compound I-120, 1-acryloyl-4-(6-chloro-7-(2-fluorophenyl)quinazolin-4-yl)piperazine-2-carboxamide], under setting [1], the Binding % result was “+++ (+++indicates binding activity greater than 50% and up to 75%)”.
Take `C=CC(=O)N1CCC(c2ncnc3cc(Cl)c(-c4ccccc4Cl)cc23)CC1` [Compound I-36, 1-(4-(7-chloro-6-(2-chlorophenyl)quinazolin-4-yl)piperidin-1-yl)prop-2-en-1-one]: under setting [3], the Binding % result was “+ (+indicates binding activity from 5% to 25%)”.
In the case of `C=CC(=O)N1CCN(c2ncnc3cc(-n4ccc(Cl)cc4=O)c(Cl)cc23)CC1` [Compound I-181, 1-(4-(4-acryloylpiperazin-1-yl)-6-chloroquinazolin-7-yl)-4-chloropyridin-2(1H)-one], under setting [1], the Binding % result is “+ (+indicates binding activity from 5% to 25%)”.
Turning to `C=CC(=O)N1CCN(c2nc(NC)nc3cc(-c4c(C)ccc5[nH]ncc45)c(Cl)cc23)CC1` [Compound 312, 1-(4-(6-chloro-7-(5-methyl-1H-indazol-4-yl)-2-(methylamino)quinazolin-4-yl)piperazin-1-yl)prop-2-en-1-one], the Binding % entry under setting [2] was “++++ (++++indicates binding activity greater than 75%)”.

Source of the values: patent US10111874B2, “Combination therapies for treatment of cancer” (Araxes Pharma LLC, priority 2014, dated 2018).
